What was measured:
BTK (C481S) = target: T1, BTK (C481S) (Homo sapiens, UniProt Q06187, C481S); assay: Kinase assay of BTK (C481S), [33P]-ATP filter-binding, Reaction Biology Corporation; assay type: biochemical; conditions: 6 nM BTK (C481S), 0.2 mg/ml pEY substrate, 10 μM ATP, 20 min preincubation, 120 min reaction at room temperature
T1 construct: purchased SignalChem B10-12CH
Method: The kinase activity of BTK (C481S) was assayed at Reaction Biology Corporation. The substrate in the BTK (C481S) reaction, pEY (poly[Glu:Tyr] (4:1)) (Sigma, Cat. #P7244-250MG), was prepared in fresh reaction buffer (20 mM Hepes (pH 7.5), 10 mM MgCl2, 1 mM EGTA, 0.02% Brij35, 0.02 mg/mi BSA, 0.1 mM Na3VO4, 2 mM DTT, 1% DMSO). BTK(C481S) (SignalChem, Cat. #B10-12CH) was delivered into the substrate solution and mixed gently. The final concentrations of BTK (C481S) and the substrate in the reaction mixture were 6 nM and 0.2 mg/ml, respectively. Compounds were tested in 10-point concentration/response mode with 3-fold serial dilution steps starting at 1 μM.
Compounds in 100% DMSO were delivered into the kinase reaction mixture by acoustic liquid delivery technology (Echo550; nanoliter range) and incubated for 20 min at room temperature. 10 μM [^33P]-ATP (ATP: Sigma, Cat #: A7699; [^33P]-ATP: Hartmann Analytic, Cat #: SCF-301-12) was delivered into the reaction mixture to initiate the reaction. The mixture was incubated for 120 min at room temperature. Radioactivity was detected utilizing a proprietary filter-binding method. Kinase activity data were expressed as the percent remaining kinase activity in test samples compared to vehicle (DMSO) reactions. IC50 values were obtained using GraphPad Prism software.
Select compounds prepared as described above were assayed according to the biological procedures described herein.

OCI-LY10 cells = assay: Cell proliferation assay (MTS) in OCI-LY10 cells; assay type: cell-based; conditions: Homo sapiens; inhibition of OCI-LY10 cells proliferation, 72 h incubation, MTS, absorbance at 490 nm; read-out: OCI-LY10 IC50
How it was run: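 BTK-dependent OCI-LY10 proliferation: cells seeded at 10000/well, preincubated 4 h, then compound exposure 72 h at 37° C., 5% CO2. MTS added for 2 h and absorbance read at 490 nm; IC50 derived from the concentration-response.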

T1 sequence (Q06187 whole entry C481S): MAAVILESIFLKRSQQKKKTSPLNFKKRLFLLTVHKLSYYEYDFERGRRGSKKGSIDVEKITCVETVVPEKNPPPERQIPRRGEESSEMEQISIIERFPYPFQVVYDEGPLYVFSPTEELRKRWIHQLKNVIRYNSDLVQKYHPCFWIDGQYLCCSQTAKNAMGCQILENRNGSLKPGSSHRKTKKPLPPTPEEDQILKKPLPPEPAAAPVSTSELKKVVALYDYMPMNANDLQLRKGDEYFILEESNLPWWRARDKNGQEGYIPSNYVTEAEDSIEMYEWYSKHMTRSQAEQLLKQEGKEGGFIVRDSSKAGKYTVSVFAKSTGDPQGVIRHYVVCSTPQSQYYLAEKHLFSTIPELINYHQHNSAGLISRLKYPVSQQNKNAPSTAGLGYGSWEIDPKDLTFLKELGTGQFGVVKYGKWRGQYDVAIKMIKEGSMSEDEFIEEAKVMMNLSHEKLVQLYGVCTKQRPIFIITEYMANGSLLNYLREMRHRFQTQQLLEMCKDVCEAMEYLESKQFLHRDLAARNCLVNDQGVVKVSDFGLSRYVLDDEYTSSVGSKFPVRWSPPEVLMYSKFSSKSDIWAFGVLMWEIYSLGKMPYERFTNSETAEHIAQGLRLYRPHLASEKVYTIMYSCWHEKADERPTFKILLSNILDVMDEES

IC50 (BTK (C481S))	IC50 (OCI-LY10 cells)	SMILES
0.5 nM	1 nM	COc1ccc(F)cc1C(=O)NCc1ccc(-c2nn(C3CCCC3)c3c(=O)[nH]nc(N)c23)cc1 [Example 11, N-(4-(4-amino-1-cyclopentyl-7-oxo-6,7-dihydro-1H-pyrazolo[3,4-d]pyridazin-3-yl)benzyl)-5-fluoro-2-methoxybenzamide]
6.5 nM	69 nM	COc1ccccc1C(=O)NCc1ccc(-c2cn(C3CCCC3)c3c(=O)[nH]nc(N)c23)cc1 [Example 4, N-(4-(4-amino-1-cyclopentyl-7-oxo-6,7-dihydro-1H-pyrrolo[2,3-d]pyridazin-3-yl)benzyl)-2-methoxybenzamide]
0.45 nM	1 nM	COc1ccc(F)cc1C(=O)NCc1ccc(-n2cc(C3CCCC3)c3c(=O)[nH]nc(N)c32)cc1 [Example 8, N-(4-(7-amino-3-cyclopentyl-4-oxo-4,5-dihydro-1H-pyrrolo[2,3-d]pyridazin-1-yl)benzyl)-5-fluoro-2-methoxybenzamide]
0.91 nM	1 nM	COc1ccc(F)cc1C(=O)NCc1ccc(-c2nn([C@H]3CCC[C@H]3F)c3c(=O)[nH]nc(N)c23)cc1 [Example 81, N-(4-(4-amino-1-((1S,2R)-2-fluorocyclopentyl)-7-oxo-6,7-dihydro-1H-pyrazolo[3,4-d]pyridazin-3-yl)benzyl)-5-fluoro-2-methoxybenzamide]
